Results on ten molecules are retold here after ChEMBL document CHEMBL5291721, “A preclinical secondary pharmacology resource illuminates target-adverse drug reaction associations of marketed drugs” (Nat Commun, 2023).

Assay [1] concerns the target Kappa-type opioid receptor (Homo sapiens, UniProt P41145).
The target of assay [2] is 5-hydroxytryptamine receptor 2A (Homo sapiens, UniProt P28223). It is filed as functional, cell-based.
In assay [3] the target is T1, Neuropeptide Y receptor type 1 (Homo sapiens, UniProt P25929).
T1 sequence (P25929 whole entry): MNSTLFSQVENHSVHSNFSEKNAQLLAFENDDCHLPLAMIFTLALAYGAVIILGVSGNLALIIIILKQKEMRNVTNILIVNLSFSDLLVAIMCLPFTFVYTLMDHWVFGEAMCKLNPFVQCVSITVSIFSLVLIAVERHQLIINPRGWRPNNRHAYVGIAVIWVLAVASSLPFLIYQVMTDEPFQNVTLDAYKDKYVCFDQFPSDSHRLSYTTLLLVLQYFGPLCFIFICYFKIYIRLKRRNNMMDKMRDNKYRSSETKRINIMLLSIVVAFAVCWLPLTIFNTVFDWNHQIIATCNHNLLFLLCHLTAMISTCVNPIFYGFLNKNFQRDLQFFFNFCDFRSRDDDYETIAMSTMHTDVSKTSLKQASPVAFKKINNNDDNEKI

Assay [4] has as its target T2, Alpha-1A adrenergic receptor (Homo sapiens, UniProt P35348).
T2 sequence (P35348 whole entry): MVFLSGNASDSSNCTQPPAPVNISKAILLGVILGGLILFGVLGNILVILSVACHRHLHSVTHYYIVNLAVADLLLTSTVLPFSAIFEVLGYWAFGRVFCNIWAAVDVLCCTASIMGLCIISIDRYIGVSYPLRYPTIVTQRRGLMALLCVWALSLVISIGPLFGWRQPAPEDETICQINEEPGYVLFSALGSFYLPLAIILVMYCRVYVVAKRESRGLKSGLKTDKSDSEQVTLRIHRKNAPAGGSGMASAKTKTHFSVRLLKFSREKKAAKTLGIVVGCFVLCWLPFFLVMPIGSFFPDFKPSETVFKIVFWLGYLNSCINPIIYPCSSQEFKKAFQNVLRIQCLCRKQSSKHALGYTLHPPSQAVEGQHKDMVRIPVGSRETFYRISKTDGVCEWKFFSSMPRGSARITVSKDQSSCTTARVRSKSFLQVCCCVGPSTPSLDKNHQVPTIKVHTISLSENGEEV
Type of assay: functional, cell-based.

Assay [5] has as its target Sodium-dependent dopamine transporter (Homo sapiens, UniProt Q01959).
For assay [6], the target named is T3, Mu-type opioid receptor (Homo sapiens, UniProt P35372).
In assay [7] the target is T4, Amine oxidase [flavin-containing] A (Homo sapiens, UniProt P21397).
T4 sequence (P21397 whole entry): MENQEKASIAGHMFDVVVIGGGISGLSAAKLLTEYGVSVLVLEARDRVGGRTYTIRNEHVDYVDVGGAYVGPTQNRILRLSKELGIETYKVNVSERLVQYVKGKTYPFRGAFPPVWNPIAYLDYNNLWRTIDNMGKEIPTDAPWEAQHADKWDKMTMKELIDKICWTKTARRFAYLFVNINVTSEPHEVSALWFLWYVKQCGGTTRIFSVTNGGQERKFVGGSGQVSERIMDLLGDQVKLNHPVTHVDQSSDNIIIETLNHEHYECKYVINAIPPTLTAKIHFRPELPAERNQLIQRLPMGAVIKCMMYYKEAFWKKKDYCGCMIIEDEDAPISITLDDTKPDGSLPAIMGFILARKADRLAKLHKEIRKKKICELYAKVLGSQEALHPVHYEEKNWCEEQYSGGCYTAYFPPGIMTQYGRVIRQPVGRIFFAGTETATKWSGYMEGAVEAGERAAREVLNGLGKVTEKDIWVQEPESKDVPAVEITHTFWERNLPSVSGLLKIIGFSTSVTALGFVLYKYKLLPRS
It is filed as functional.

Another assay has as its target Histamine H1 receptor (Homo sapiens, UniProt P35367).
Assay [8] concerns the target Neuronal acetylcholine receptor subunit alpha-4 (Homo sapiens, UniProt P43681).
Assay [9] deals with T2, Alpha-1A adrenergic receptor. Type of assay: functional, cell-based. The source holds these as a separate data set.
The next assay deals with Cannabinoid receptor 1 (Homo sapiens, UniProt P21554).
The target of assay [10] is T2, Alpha-1A adrenergic receptor.
Assay [11] concerns the target T5, 5-hydroxytryptamine receptor 1A (Homo sapiens, UniProt P08908).
T5 sequence (P08908 whole entry): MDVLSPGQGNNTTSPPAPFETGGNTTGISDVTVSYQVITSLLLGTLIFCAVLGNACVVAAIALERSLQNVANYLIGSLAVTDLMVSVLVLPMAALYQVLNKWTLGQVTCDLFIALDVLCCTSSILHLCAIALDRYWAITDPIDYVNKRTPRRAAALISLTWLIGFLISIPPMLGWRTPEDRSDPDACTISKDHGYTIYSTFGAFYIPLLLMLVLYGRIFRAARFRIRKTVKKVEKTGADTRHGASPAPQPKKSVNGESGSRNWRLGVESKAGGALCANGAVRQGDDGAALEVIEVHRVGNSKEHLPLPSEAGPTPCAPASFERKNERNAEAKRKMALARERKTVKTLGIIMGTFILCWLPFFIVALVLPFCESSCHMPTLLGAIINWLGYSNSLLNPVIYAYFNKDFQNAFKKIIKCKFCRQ
It is filed as functional, cell-based.

The target in assay [12] is T3, Mu-type opioid receptor. The experiment in a line: biochemical. It is filed as functional.
For a further assay, the target named is T6, Endothelin-1 receptor (Homo sapiens, UniProt P25101).
T6 sequence (P25101 whole entry): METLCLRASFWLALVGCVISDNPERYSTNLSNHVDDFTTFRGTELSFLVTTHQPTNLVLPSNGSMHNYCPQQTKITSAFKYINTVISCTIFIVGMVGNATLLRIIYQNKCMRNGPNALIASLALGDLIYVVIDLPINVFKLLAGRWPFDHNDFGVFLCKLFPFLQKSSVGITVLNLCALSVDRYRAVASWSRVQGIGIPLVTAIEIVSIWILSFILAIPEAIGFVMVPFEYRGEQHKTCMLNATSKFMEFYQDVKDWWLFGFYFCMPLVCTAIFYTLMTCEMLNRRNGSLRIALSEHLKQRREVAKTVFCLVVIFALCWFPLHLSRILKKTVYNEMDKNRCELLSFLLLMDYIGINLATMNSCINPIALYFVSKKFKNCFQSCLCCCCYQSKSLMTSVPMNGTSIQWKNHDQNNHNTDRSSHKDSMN

Broadly, the AC50 is the concentration giving half of the maximal activity seen. A high value points to weaker potency.

Where only a bound is given, the exact number is not on record here.
Also: assay procedure not described here.

Kappa-type opioid receptor, sequence (P41145 whole entry): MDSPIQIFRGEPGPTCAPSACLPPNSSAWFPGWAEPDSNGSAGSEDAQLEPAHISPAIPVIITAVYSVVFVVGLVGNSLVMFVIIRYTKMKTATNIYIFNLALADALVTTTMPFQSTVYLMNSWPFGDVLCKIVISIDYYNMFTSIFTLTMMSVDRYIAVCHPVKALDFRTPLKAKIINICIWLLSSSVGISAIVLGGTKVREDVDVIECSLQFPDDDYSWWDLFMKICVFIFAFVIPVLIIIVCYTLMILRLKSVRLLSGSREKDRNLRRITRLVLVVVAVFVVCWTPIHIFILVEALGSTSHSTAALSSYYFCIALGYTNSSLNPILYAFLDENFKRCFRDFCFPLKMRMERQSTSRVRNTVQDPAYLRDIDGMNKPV
T3 sequence (P35372 whole entry): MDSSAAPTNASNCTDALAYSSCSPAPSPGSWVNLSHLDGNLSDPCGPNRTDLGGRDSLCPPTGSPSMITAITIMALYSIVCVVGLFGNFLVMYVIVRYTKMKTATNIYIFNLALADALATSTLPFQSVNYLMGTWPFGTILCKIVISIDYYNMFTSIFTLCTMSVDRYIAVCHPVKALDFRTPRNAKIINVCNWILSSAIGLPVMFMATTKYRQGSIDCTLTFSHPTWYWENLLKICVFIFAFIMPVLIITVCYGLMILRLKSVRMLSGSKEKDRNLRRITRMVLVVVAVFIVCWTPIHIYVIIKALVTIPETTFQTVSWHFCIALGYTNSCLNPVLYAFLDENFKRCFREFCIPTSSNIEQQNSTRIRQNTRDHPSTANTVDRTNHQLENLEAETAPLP
Neuronal acetylcholine receptor subunit alpha-4, sequence (P43681 whole entry): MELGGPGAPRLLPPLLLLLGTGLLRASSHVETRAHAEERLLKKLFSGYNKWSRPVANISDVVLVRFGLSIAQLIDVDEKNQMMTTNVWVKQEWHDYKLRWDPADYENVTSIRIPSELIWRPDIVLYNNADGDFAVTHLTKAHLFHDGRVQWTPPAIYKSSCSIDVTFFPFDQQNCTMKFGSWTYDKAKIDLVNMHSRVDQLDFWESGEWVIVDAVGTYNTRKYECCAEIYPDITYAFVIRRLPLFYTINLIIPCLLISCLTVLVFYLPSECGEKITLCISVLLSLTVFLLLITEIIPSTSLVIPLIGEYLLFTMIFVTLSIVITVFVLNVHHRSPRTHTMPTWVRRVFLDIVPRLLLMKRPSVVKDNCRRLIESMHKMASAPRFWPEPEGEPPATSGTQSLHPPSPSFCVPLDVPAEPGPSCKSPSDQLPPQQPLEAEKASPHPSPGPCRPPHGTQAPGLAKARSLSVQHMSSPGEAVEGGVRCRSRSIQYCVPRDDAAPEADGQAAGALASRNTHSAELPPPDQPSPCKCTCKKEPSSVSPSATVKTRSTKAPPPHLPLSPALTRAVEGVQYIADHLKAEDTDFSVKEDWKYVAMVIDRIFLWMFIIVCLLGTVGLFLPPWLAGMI
Sodium-dependent dopamine transporter, sequence (Q01959 whole entry): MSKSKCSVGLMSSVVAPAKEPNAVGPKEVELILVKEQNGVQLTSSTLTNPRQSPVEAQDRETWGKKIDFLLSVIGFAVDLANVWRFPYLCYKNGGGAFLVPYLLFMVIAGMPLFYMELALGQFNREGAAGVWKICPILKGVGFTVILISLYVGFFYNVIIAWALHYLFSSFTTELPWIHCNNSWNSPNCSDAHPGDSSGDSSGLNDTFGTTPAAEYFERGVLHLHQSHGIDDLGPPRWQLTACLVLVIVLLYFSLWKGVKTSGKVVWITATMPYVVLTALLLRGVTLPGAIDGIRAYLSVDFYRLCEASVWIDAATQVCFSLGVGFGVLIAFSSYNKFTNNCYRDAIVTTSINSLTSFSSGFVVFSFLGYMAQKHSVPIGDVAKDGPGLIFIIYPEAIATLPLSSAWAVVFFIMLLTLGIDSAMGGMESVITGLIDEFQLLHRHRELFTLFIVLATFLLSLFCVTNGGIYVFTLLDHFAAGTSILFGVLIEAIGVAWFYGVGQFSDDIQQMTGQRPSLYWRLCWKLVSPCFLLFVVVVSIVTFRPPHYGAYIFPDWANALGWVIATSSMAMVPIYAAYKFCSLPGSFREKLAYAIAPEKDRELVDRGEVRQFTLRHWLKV
Cannabinoid receptor 1, sequence (P21554 whole entry): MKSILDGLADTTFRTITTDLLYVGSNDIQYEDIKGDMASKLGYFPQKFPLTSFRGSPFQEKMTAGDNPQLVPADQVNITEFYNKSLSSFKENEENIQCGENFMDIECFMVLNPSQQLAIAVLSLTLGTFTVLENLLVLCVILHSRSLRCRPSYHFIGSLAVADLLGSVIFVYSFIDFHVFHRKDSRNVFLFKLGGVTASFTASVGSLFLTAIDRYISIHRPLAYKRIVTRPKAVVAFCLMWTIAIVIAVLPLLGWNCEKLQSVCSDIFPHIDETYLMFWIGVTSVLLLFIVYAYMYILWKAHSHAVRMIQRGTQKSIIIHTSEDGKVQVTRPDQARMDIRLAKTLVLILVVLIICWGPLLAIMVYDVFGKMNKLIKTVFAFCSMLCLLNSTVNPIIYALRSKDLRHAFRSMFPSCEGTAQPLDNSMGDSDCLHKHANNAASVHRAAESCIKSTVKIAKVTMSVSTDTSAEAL
5-hydroxytryptamine receptor 2A, sequence (P28223 whole entry): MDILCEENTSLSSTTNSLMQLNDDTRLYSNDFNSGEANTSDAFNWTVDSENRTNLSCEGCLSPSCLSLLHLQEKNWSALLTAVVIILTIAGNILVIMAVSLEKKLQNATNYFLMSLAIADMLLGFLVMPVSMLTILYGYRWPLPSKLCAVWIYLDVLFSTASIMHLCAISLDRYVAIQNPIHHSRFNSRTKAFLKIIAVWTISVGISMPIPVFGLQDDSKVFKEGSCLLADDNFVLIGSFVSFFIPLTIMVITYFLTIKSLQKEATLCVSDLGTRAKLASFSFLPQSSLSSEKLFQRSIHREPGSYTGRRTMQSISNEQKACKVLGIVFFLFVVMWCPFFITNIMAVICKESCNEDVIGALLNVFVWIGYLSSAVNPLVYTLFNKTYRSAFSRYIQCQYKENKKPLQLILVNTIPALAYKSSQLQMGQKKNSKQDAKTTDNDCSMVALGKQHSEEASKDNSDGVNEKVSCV
Histamine H1 receptor, sequence (P35367 whole entry): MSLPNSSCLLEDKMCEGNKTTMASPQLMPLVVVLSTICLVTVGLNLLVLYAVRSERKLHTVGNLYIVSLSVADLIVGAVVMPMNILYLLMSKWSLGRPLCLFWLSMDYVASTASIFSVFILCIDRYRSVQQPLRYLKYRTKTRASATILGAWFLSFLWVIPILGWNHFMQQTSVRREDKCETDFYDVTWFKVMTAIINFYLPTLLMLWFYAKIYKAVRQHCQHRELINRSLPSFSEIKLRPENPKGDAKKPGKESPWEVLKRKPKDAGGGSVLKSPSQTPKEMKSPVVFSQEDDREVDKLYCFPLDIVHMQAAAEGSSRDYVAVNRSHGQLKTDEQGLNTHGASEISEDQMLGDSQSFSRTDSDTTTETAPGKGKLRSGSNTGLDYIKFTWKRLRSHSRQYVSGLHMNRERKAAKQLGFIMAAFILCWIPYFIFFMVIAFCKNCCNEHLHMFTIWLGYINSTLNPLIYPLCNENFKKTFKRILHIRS

Consider `COc1cc(C)c(/C=C/C(C)=C/C=C/C(C)=C/C(=O)O)c(C)c1C` [ACITRETIN], for which the AC50 in [1] is over 10 µM; in assay [2], over 10 µM; in assay [3] it was over 10 µM; in assay [4], over 30 µM; in assay [5], over 10 µM; at Mu-type opioid receptor [6], over 30 µM. Also, the AC50 is over 10 µM in assay [7]; over 10 µM at Histamine H1 receptor; over 10 µM in assay [8]; over 30 µM in [9]; over 10 µM on Cannabinoid receptor 1; over 10 µM in [10].
In the case of `O=C(O)c1ccc(NC(=O)[C@H](Cc2ccc(O)cc2)NC(=O)c2ccccc2)cc1` [BENTIROMIDE], the AC50 was over 10 µM in assay [1]; over 10 µM in assay [2]; over 10 µM in assay [3]; over 10 µM in [5]; over 30 µM on Mu-type opioid receptor [6]; over 10 µM in assay [7]. For the same molecule, the AC50 (in [11]; at Histamine H1 receptor; in [8]; at Cannabinoid receptor 1; in assay [10]) was over 10 µM throughout.
`Clc1ccc(CCC(Cn2ccnc2)Sc2c(Cl)cccc2Cl)cc1` (configuration not stated) [BUTOCONAZOLE]: the concentration at half-maximal activity (AC50) is 1.8 µM in assay [1]; over 30 µM in assay [2]; over 30 µM in [3]; over 30 µM in assay [4]; over 30 µM at Mu-type opioid receptor [12]; 20 µM in [5]. Further, the half-maximal activity concentration (AC50) (in assay [7]; on Endothelin-1 receptor; on Histamine H1 receptor; in assay [8]; in assay [9]; on Cannabinoid receptor 1) was over 30 µM throughout.
Turning to `Oc1ccc(CCNCCCCCCNCCc2ccccc2)cc1O` [DOPEXAMINE], the AC50 in [1] was 4.3 µM; in [2], over 30 µM; in [3], over 30 µM; in [4], 1.4 µM; on Mu-type opioid receptor [12], over 30 µM; in assay [5], 0.5 µM. The half-maximal activity concentration (AC50) in [7] is over 30 µM; on Endothelin-1 receptor, over 30 µM; in assay [11], over 30 µM; on Histamine H1 receptor, 15 µM; in assay [8] it was over 30 µM; in assay [9] it was over 30 µM.
In the case of `CC/C=C\C/C=C\C/C=C\C/C=C\C/C=C\CCCC(=O)OCC` [ICOSAPENT ETHYL], the concentration at half-maximal activity (AC50) (in assay [1]; in [2]; in assay [3]; in [4]; at Mu-type opioid receptor [12]; in assay [5]) was over 30 µM throughout. Moreover, the half-maximal activity concentration (AC50) (in assay [7]; at Endothelin-1 receptor; in [11]; on Histamine H1 receptor; in assay [8]; in assay [9]) was over 30 µM in each case.
Regarding `COc1ccc(CN2CCN(C(c3ccc(F)cc3)c3ccc(F)cc3)CC2)c(OC)c1OC` [LOMERIZINE], the AC50 in assay [1] was 12 µM; in assay [2] it was 21 µM; in assay [3] it was over 30 µM; in [4] it was 8.2 µM; on Mu-type opioid receptor [12] it was 3.3 µM; in assay [5], 16 µM. For the same molecule, the AC50 at Mu-type opioid receptor [6] is 9.7 µM; in [7] it was over 30 µM; at Endothelin-1 receptor it was over 30 µM; on Histamine H1 receptor, 4.5 µM; in assay [8], over 30 µM; in assay [9] it was over 30 µM.
Regarding `CC(=O)[C@H]1CC[C@H]2[C@@H]3C[C@H](C)C4=CC(=O)CC[C@]4(C)[C@H]3[C@@H](O)C[C@]12C` [MEDRYSONE], the half-maximal activity concentration (AC50) was over 10 µM in assay [1]; over 10 µM in assay [2]; over 10 µM in assay [3]; over 30 µM in [4]; over 10 µM in [5]; over 30 µM on Mu-type opioid receptor [6]. Further, the AC50 in [7] is over 10 µM; in assay [11], over 10 µM; on Histamine H1 receptor, over 10 µM; in [8] it was over 10 µM; in assay [9], over 30 µM; in assay [10] it was over 10 µM.
Take `O=C(c1cc(Cc2n[nH]c(=O)c3ccccc23)ccc1F)N1CCN(C(=O)C2CC2)CC1` [OLAPARIB]: the AC50 in [1] was over 10 µM; in [2], over 10 µM; in assay [3], over 30 µM; in assay [5] it was over 30 µM; at Mu-type opioid receptor [6], over 30 µM; in assay [7], over 10 µM. The AC50 on Histamine H1 receptor was over 10 µM; in [8] it was over 30 µM; at Cannabinoid receptor 1, over 10 µM; in assay [10], over 10 µM.
With `C=CC[N+]1([C@H]2C[C@H]3[C@@H]4CC[C@H]5C[C@H](O)[C@@H](N6CCOCC6)C[C@]5(C)[C@H]4CC[C@]3(C)[C@H]2OC(C)=O)CCCC1` [ROCURONIUM], the AC50 (in assay [1]; in assay [2]; in assay [3]; in [4]; at Mu-type opioid receptor [12]; in assay [5]) was over 30 µM throughout. Besides, the AC50 (in assay [7]; in assay [11]; on Histamine H1 receptor; in assay [8]; in assay [9]; at Cannabinoid receptor 1) was over 30 µM in each case.
With `Cn1c(=O)c2c(ncn2CCOC(=O)C(C)(C)Oc2ccc(Cl)cc2)n(C)c1=O` [THEOFIBRATE], the AC50 (in assay [1]; in assay [2]; in assay [3]; in assay [4]; at Mu-type opioid receptor [12]; in [5]) was over 30 µM throughout. In addition, the AC50 (in assay [7]; at Endothelin-1 receptor; in [11]; at Histamine H1 receptor; in [8]; in assay [9]) was over 30 µM each time.
